# According to patent publication US20140315991A1, “COMPOSITION FOR TREATMENT OF EPITHELIAL TISSUE” (NOVODERMIX INTERNATIONAL LIMITED, priority 2008, published 2014):
# Tested on: mature atrophic post-Acne facial scarring
# Test: randomized, triple-blind study in mature atrophic post-Acne facial scarring (Example 7)
# Assay type: in vivo, human
# Design: transient reduction in vision (adverse event, one patient): unit not given here
# Experimental: A randomized, triple-blind study was conducted on 35 patients in two sites in India (Amritsar and Faridkot). Ethnic skin patients (Fitzpatrick 4-5) with mature atrophic post-Acne facial scarring (scar age >2 years) were randomly assigned to one of four study arms: topical Topiramate 5.0% (n=10), topical Topiramate 2.5% (n=9), oral Topiramate 25 mg (n=8) and topical placebo (n=7). Patients applied the topical formulation once a day on both cheeks for 3 months. Clinical assessment was performed at 6 weeks and 3 months using a visual analog scale (VAS) by the patients and 3 independent observers (2 plastic surgeons and 1 general surgeon) who scored side-by-side cheek photos (before and after treatment).
# Thirty five patients completed the study, and a total of 57 cheeks (topical Topiramate 5%—n=18; topical Topiramate 2.5%—n=19; oral Topiramate—n=13; topical Placebo—n=7) were evaluated and scored.
smiles,measurement,setting,value
CC1(C)O[C@@H]2[C@@H](CO[C@@]3(COS(N)(=O)=O)OC(C)(C)O[C@@H]23)O1 [Topiramate],advantage of the study group over the control (topical placebo),day 42,95%
same,"improvement (visual analog scale, patients and 3 independent observers)","day 42, once a day",13.91%
same,advantage of the study group over the control (topical placebo),day 90,102%
same,"improvement (visual analog scale, patients and 3 independent observers)","day 90, once a day",34.69%
same,"transient reduction in vision (adverse event, one patient)","from 20/20, within 2 days from starting 25 mg oral, returned to 20/20 within 7 days from stopping",−5.00
